# Measurements as given in paper PMC11851430, “Workflow for E3 Ligase Ligand Validation for PROTAC Development” (ACS Chemical Biology, 2025).
# Key:
# MARK4A = target: T1, MARK4A (Homo sapiens, UniProt Q96L34); assay: DSF assay; format: binding; conditions: 20 µM compound
# T1 construct: purchased in-house DSF panel (SGC-style construct names; the trailing A/B is a construct suffix)
# full-length AAK1 = full-length AAK1 (Homo sapiens, UniProt Q2M2I8); assay: NanoBRET target engagement assay, intact and permeabilized cells; conditions: NanoBRET, mean of duplicates
# Chain of full-length AAK1 (Q2M2I8 whole entry): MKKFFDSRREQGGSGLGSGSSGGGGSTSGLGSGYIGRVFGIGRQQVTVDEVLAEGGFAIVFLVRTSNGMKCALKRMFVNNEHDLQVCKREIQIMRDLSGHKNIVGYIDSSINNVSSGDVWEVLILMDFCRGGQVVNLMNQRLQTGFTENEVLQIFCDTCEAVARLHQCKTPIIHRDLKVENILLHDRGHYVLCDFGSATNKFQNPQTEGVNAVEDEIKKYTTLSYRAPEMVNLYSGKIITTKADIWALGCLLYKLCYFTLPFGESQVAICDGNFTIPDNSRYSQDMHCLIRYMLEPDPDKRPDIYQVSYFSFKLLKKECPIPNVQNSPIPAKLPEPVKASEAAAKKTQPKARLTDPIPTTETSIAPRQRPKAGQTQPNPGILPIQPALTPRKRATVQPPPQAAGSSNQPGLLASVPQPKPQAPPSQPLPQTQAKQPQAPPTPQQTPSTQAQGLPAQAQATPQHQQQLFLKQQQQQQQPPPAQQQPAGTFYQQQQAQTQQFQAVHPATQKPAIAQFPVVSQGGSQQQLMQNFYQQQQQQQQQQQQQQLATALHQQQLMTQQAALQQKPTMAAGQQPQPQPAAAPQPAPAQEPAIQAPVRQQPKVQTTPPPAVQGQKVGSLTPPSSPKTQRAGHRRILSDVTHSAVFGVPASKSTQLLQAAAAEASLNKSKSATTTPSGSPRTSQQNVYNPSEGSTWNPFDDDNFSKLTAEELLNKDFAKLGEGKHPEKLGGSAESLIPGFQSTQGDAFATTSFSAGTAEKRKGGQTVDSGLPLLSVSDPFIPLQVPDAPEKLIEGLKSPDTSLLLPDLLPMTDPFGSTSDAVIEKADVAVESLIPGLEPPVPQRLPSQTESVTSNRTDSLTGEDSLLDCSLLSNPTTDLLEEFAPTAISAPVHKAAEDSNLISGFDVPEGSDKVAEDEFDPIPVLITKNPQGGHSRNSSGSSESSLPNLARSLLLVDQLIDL
# ABL1A = target: T2, ABL1A (Homo sapiens, UniProt P00519); assay: DSF assay; format: binding; conditions: 20 µM compound
# T2 construct: purchased in-house DSF panel (SGC-style construct names; the trailing A/B is a construct suffix)
# T2 sequence (P00519 229-512): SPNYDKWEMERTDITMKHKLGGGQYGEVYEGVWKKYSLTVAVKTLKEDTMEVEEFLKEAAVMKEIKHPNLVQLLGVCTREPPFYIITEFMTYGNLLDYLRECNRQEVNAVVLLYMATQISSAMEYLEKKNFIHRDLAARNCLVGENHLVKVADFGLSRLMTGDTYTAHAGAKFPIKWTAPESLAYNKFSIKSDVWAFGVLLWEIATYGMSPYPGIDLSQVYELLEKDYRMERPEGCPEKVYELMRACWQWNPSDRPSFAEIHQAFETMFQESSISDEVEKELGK
# [1] = target: T3, kinase protein levels in MCF-7 cells (Homo sapiens, UniProt A0A096LP01); assay: TMT-labeled quantitative proteomics; format: cell-based; conditions: protein LINC00493
# T3 construct: endogenous in cells; host or cells: MCF-7
# T3 sequence (A0A096LP01 whole entry): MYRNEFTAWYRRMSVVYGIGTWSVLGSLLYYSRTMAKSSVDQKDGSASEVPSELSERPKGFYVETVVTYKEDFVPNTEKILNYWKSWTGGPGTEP
# [2] = test system: kinase protein levels in MCF-7 cells; assay: TMT-labeled quantitative proteomics; format: cell-based, human
# STK17A = target: T4, STK17A (Homo sapiens, UniProt Q9UEE5); assay: DSF assay; format: binding; conditions: 20 µM compound
# T4 construct: purchased in-house DSF panel (SGC-style construct names; the trailing A/B is a construct suffix)
# T4 sequence (Q9UEE5 61-321): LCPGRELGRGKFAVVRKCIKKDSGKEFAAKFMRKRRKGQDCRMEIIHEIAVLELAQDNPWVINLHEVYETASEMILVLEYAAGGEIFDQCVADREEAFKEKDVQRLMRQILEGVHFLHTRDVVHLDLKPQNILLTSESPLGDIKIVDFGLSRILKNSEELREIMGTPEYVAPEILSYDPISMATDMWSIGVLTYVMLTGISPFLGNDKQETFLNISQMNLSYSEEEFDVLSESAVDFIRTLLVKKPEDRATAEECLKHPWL
# T1 sequence (Q96L34 59-310): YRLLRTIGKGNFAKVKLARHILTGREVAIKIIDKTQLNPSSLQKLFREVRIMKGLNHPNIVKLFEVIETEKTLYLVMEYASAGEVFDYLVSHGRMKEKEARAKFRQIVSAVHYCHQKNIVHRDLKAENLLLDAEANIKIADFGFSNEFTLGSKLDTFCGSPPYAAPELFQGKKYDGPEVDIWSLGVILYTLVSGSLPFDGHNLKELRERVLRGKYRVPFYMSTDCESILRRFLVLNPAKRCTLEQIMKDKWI
smiles,measurement,setting,value
CCOC(=O)c1cc(Nc2cc(C3CC3)[nH]n2)nc(Nc2ccc(CC#N)cc2)n1 [compound 5],ΔTm at 20 µM,MARK4A,6.15 °C
same,IC50,"full-length AAK1; AAK1 intact (IC50±sd)/μM, intact cells, ^a values estimated by extrapolation",0.012 ± 0.002 µM
same,IC50,"full-length AAK1; AAK1 permeabilized (IC50±sd)/μM, permeabilized cells",0.015 ± 0.002 µM
same,ΔTm at 20 µM,ABL1A,7.27 °C
same,P.Value (compound/DMSO),"[1]; MCF7, 2.5 µM, set3",0.03457
same,log2FC (compound/DMSO),"[1]; MCF7, 2.5 µM, set3",-0.4501
same,P.Value (compound/DMSO),"[1]; MCF, 0.25µM, set4",0.002655
same,log2FC (compound/DMSO),"[1]; MCF, 0.25µM, set4",0.2815
same,kinase downregulation profile compared with Jurkat cells,"[2]; MCF-7 cells, 0.25 μM, 6 h",comparable downregulation profiles
same,log2FC (compound/DMSO),"[2]; protein NBPF19;NBPF8;NBPF10;NBPF15;NBPF26;NBPF14;NBPF1;NBPF12, MCF, 0.25µM, set4",0.03286
same,log2FC (compound/DMSO),"[2]; protein NBPF19;NBPF8;NBPF26;NBPF14;NBPF12;NBPF10;NBPF15;NBPF1, MCF7, 2.5 µM, set3",-0.1342
same,log2FC (compound/DMSO),"[2]; protein NUDT4;NUDT11;NUDT10, MCF, 0.25µM, set4",0.03432
same,log2FC (compound/DMSO),"[2]; protein UQCRHL;UQCRH, MCF, 0.25µM, set4",0.1631
same,ΔTm at 20 µM,STK17A,6.97 °C
